Reference: PubChem BioAssay AID1419 (Emory University Molecular Libraries Screening Center, 2008)
pIC50: −log10 of the molar value. Activity calls are given as the source filed them. How the calls were made is not given here.

Test: blockers of an Epstein-Barr virus protein-peptide interaction – biochemical, fluorescence polarization, dose response (AID 1419)
Conditions: cell-free protein-peptide binding, 2 h; for fold change: measured here: P channel fold over control, at 54 µM

| Compound | pIC50 | fold change | IC50 |
| --- | --- | --- | --- |
| CCN1CC=C2C(C1)C(c1ccc(Cl)s1)C(C#N)=C(N)C2(C#N)C#N (configuration not stated) | 6.02 | 9.28 |  |
| Cc1ccn(C(=O)c2ccc(NC(=O)C3CCCCC3)cc2)n1 |  | 0.987 | > 54 µM (inactive) |
| CCCCn1c(=O)[nH]c2nc3cc(NC(C)=O)ccc3nc2c1=O | 5.41 | 3.87 |  |
| COc1ccccc1Nc1nc2ccc(C)cc2cc1C#N | 4.78 | 2.74 |  |
| Cc1ccc([N+](=O)[O-])cc1-c1ccc(/C=C(\C#N)c2[nH]nc(N)c2C#N)o1 |  | 0.727 | > 54 µM (inactive) |
| Oc1[nH]c2ccccc2c1N=Nc1ccccc1 | 4.73 | 21.6 |  |
| COc1ccc(Cl)cc1CN1CCN(c2nc(C)cc(C)c2C#N)CC1 | 4.72 | 2.25 |  |
| Cc1c(N2C(=O)c3ccc4c5c(ccc(c35)C2=O)CC4)c(=O)n(-c2ccccc2)n1C |  | 1.19 | > 54 µM (inactive) |
| CCN(CC)c1ccc(/C=C/C(=O)c2ccc(Br)cc2)cc1 | 5.58 | 31.1 |  |
| CCOc1ccc(-c2csc(NC(=O)CSC3=NC(=O)CN3C(C)=O)n2)c2ccccc12 |  | 0.947 | > 54 µM (inactive) |
| O=C(N=Nc1c(O)[nH]c2ccccc12)c1cc(-c2ccc(F)cc2)n[nH]1 |  | 0.81 | > 54 µM (inactive) |
| Cn1cc(/C=C2\SC(=S)N(NC(=O)c3cccc(Cl)c3)C2=O)c2ccccc21 | 5.37 | 8.23 |  |
| CCCCNC(=O)CN1C(=O)c2cccc(N)c2C1=O | 5.57 | 2.44 |  |
| COc1ccc(NC(=O)Cn2ncc(Cl)c(Cl)c2=O)cc1S(=O)(=O)N1CCOCC1 |  | 0.96 | > 54 µM (inactive) |
| CN(N=Nc1ccc([N+](=O)[O-])cc1)c1ccccc1 | 5.40 | 61.8 |  |
| Cn1c(=O)c(NC2CCCCC2)c2c3c(cccc31)C(=O)c1ccccc1-2 | 6.06 | 34.7 |  |
| COc1ccccc1N1C(=O)C2C(C(=O)c3ccccc3)=NN(c3ccc(C)cc3)C2C1=O (configuration not stated) | 5.44 | 19.5 |  |
| Cc1cc(NC(=O)Cc2cccs2)no1 | 4.77 | 1.09 |  |
| CCn1c2ccccc2c2cc(NC(=O)c3ccc(=O)oc3)ccc21 |  | 1.77 | > 54 µM (inactive) |
| CCC1(CC)NC(=O)N(CC(=O)Nc2sc3c(c2C(N)=O)CCC3)C1=O |  | 1.23 | > 54 µM (inactive) |
| CCSc1nnc(NC(=O)C(C(F)(F)F)C(F)(F)F)s1 |  | 0.583 | > 54 µM (inactive) |

| Compound | pIC50 | fold change | IC50 |
| --- | --- | --- | --- |
| COc1ccc(C2C(C(=O)c3cccs3)=C(O)C(=O)N2c2nnc(C)s2)cc1OC (configuration not stated) | 5.51 | 10.8 |  |
| COc1ccc(N2C(=O)[C@@H]3[C@H](C2=O)[C@H]2c4ccccc4C=CN2[C@@H]3C(C)=O)cc1 | 5.12 | 5.55 |  |
| O=C(OCCN1C(=O)c2cccc3c(N4CCOCC4)ccc(c23)C1=O)c1ccccc1Cl | 5.54 | 65.4 |  |
| O=C1NC(=O)C2=Cc3ccc(O)cc3OC2(O)N1 (configuration not stated) | > 6.38 | 100 |  |
| O=C(CSc1nnc(SCc2ccccc2)s1)N/N=C/C=C\c1ccco1 |  | 1.04 | > 54 µM (inactive) |
| COC(=O)c1c(Cl)c2n3ccccc3c(C)c(-c3ccccc3)c-2c1C(=O)OC | 5.62 | 2.2 |  |
| Cn1cccc1/C=C1/C(=O)NC(=O)N(Cc2ccc(F)cc2)C1=O |  | 1.04 | > 54 µM (inactive) |
| Cc1ccc(C(=O)Nn2c(O)c(C=C3N=c4ccccc4=N3)sc2=S)cc1 |  | 1.04 | > 54 µM (inactive) |
| COc1ccc(Nc2nc(=O)c3cc([N+](=O)[O-])ccc3s2)cc1 |  | 0.377 | > 54 µM (inactive) |
| COc1ccc(-c2onc3ccc(Br)cc23)cc1 | 6.07 | 7.24 |  |
| CCn1c(O)c(/C=N/N=C/c2ccccc2)c2ccc(C3=NNC(=O)CC3)cc21 | 4.83 | 9.01 |  |
| O=C(Nc1cccc([N+](=O)[O-])c1)c1cnccn1 |  | 1.09 | > 54 µM (inactive) |
| Cc1nc2ccccc2n2c(O)c(CC(=O)O)cc12 |  | 7.32 | > 54 µM (inactive) |
| N=c1oc2cc(O)ccc2cc1C(=O)Nc1nc2ccccc2s1 | 4.89 | 2.65 |  |
| CCn1nc(-c2ccccc2)nc2c(=O)n(C)c(=O)nc1-2 | 5.37 | 4.56 |  |
| CS(=O)(=O)N1N=C(c2ccccc2)CC1c1ccc2c(c1)OCO2 (configuration not stated) | 5.01 | 4.93 |  |
| O=c1[nH]c(C(Cl)Cl)nc2sc3c(c12)CCN(Cc1ccccc1)C3 | 4.93 | 2 |  |
| O=C(N/N=C/c1cc(Cl)cc(Cl)c1O)c1ccncc1 | 5.74 | 5.72 |  |
| CCN(CC)C(=O)/C(=C\c1ccc(Br)cc1)NC(=O)c1ccccc1OC | 5.33 | 1.15 |  |
| CN(C)c1ccc2c3c(cccc13)C(=O)N(c1ccccc1)C2=O | 5.39 | 11 |  |
| CCn1cc(C(=O)NCc2ccccn2)c(=O)c2cc(S(=O)(=O)N3CCCCC3)ccc21 | 6.13 | 4.52 |  |

| Compound | pIC50 | fold change | IC50 |
| --- | --- | --- | --- |
| N#Cc1c(N)sc(=S)c2c1CCCC2 |  | 1.09 | > 54 µM (inactive) |
| COc1ccc(C(CC(=O)N2CCOCC2)c2c(OC)cc(OC)c3c(-c4ccccc4)cc(=O)oc23)cc1 (configuration not stated) |  | 0.973 | > 54 µM (inactive) |
| Cc1ccc([N+](=O)[O-])cc1N=Nc1c(-c2ccc([N+](=O)[O-])cc2)[nH]n(C(N)=S)c1=O | 5.74 | 1.04 |  |
| O=C(c1ccccc1)c1ccc(O)cc1O | > 6.38 | 48.2 |  |
| COc1nc(NCCC2=CCCCC2)nc(OC)n1 |  | 1 | > 54 µM (inactive) |
| Nc1ccc2nc3c(=O)n(C4CCCCC4)c(=O)[nH]c3nc2c1 | > 6.38 | 101 |  |
| CN1C(=O)/C(=C2\SC(=S)N(CCCCCC(=O)O)C2=O)c2ccccc21 |  | 1.07 | 52.1 µM (inactive) |
| CC(=O)Nc1ccc(N2CCc3c(C)c(C#N)c4nc5ccccc5n4c32)cc1 |  | 3.39 | > 54 µM (inactive) |
| O=C1/C(=N\S(=O)(=O)c2cccs2)C([n+]2cccc(Cc3ccccc3)c2)=C([O-])c2ccccc21 | 5.12 | 13.9 |  |
| O=C(Nc1nnc(-c2ccccc2Cl)o1)c1cc2cc([N+](=O)[O-])ccc2s1 |  | 1.09 | > 54 µM (inactive) |
| Cc1ccc(C2C(C(=O)c3ccco3)=C(O)C(=O)N2c2nnc(C)s2)cc1 (configuration not stated) |  | 1.75 | > 54 µM (inactive) |
| COc1ccccc1NC(=O)C(=O)N/N=C/c1ccc([N+](=O)[O-])s1 |  | 1.09 | > 54 µM (inactive) |
| Cc1ccc(C2=N/C(=C\c3c(C)nn(-c4ccccc4)c3N3CCCC3)C(=O)O2)cc1 | 5.24 | 6.13 |  |
| O=[N+]([O-])c1ccc(-c2cn(-c3ccc(Cl)cc3)c(=S)[nH]2)cc1 |  | 0.93 | > 54 µM (inactive) |
| Cc1cccc(NC(=O)CSc2nnnn2C)n1 |  | 1.02 | > 54 µM (inactive) |
| CCOC(=O)N1CCC(Nc2nc3ccccc3nc2NS(=O)(=O)c2ccc(Cl)cc2)CC1 |  | 1.39 | > 54 µM (inactive) |
| COc1ccc(C2C(C(=O)c3cccs3)=C(O)C(=O)N2c2nncs2)cc1 (configuration not stated) | > 6.38 | 13 |  |
| Cc1c(C(=O)NCCSCc2c(F)cccc2Cl)cnn1-c1ccc(Cl)cc1 |  | 1.06 | > 54 µM (inactive) |
| COc1ccc(CCNc2nc(-c3cccnc3)cs2)cc1OC |  | 1.04 | > 54 µM (inactive) |
| Cc1c(O)c2c3c(cccc3c1O)C(=O)N(c1ccccc1)C2=O | 5.85 | 7.05 |  |
| COC(=O)C[n+]1cccc2ccccc21 | 5.80 | 14.8 |  |

| Compound | pIC50 | fold change | IC50 |
| --- | --- | --- | --- |
| O=C(CSc1ccsc1[N+](=O)[O-])Nc1cccc(F)c1 |  | 1.11 | > 54 µM (inactive) |
| C#CCOC(=O)/C(=C/C=C/c1ccccc1)NC(=O)c1ccccc1 |  | 1.01 | > 54 µM (inactive) |
| CC(=O)N1CCCc2cc(S(=O)(=O)N(CC(C)C)CC(C)C)ccc21 |  | 0.967 | > 54 µM (inactive) |
| Cc1ccc(/C=C/C(=O)OCc2nc(N)nc(Nc3ccccc3C)n2)o1 |  | 0.917 | > 54 µM (inactive) |
| CC1=CC(=C(C#N)c2nc3ccccc3s2)C=C(C)N1Cc1ccco1 | 5.42 | 15.7 |  |
| CN1/C(=C\C=C\C2=[N+](C)c3ccc4ccccc4c3C2(C)C)C(C)(C)c2ccccc21 | 5.42 | 4.43 |  |
| Cc1ccccc1N1C(=O)NC(=O)/C(=C\c2ccc3c(c2)CCCN3Cc2ccccc2)C1=O | 5.44 | 10.3 |  |
| O=C1Nc2ccccc2/C1=C/c1cnc(-c2ccccc2)[nH]1 | 5.37 | 14.6 |  |
| CSC1=NSC2=NC(=O)/C(=C\c3coc4ccccc4c3=O)C(=N)N12 | 5.56 | 82.6 |  |
| CSC1=NSC2=NC(=O)/C(=C/c3coc4ccc(O)cc4c3=O)C(=N)N12 | 5.60 | 63.6 |  |
| Nc1ccc(N)c(C(=O)O)c1 | 5.42 | 2.6 |  |
| COC(=O)c1ccc(C)c(NC(=O)CCSc2ccc(Cl)cc2)c1 |  | 1.15 | > 54 µM (inactive) |
| CCN1C(=O)/C(=C\c2ccc(-c3ccc([N+](=O)[O-])cc3OC)o2)SC1=Nc1cccc(C(=O)O)c1 |  | 0.573 | > 54 µM (inactive) |
| N=C1CCC(=N)c2c1c(O)c1ccccc1c2O | > 6.38 | 41.5 |  |
| Cc1ccnc(N2C(=O)c3cccc4c([N+](=O)[O-])ccc(c34)C2=O)c1 | 5.46 | 2.33 |  |
| CC(C)Nc1nc(Cl)nc(N(C#N)CN2C(=O)c3ccccc3S2(=O)=O)n1 |  | 0.923 | > 54 µM (inactive) |
| CC(=O)Nc1nc(C)c(-c2csc(Nc3cccc([N+](=O)[O-])c3)n2)s1 |  | 0.71 | > 54 µM (inactive) |
| Oc1c(Cl)cc(Cl)c(Cl)c1Cc1c(O)c(Cl)cc(Cl)c1Cl | 5.22 | 0.987 |  |
